Values after ≈ are worked out from the molar mass of the structure shown.
What was measured:
Caco-2 cells = experiment: in vitro; assay type: in vitro ADME
Method: (§1) Caco-2 cells were maintained in Dulbecco's Modification of Eagle's Medium (DMEM) with sodium pyruvate, Glutmax supplemented with 1% Pen/Strep, 1% NEAA and 10% fetal bovine serum in an incubator set at 37° C., 90% humidity and 5% CO2. Caco-2 cells between passage 43 and 61 were grown to confluence over at least 21-days on 24 well PET (polyethylene-terephthalate) plates (BD Biosciences). Experiments were run using a new HBSS donor buffer from Invitrogen containing additional 10 mM HEPES, 15 mM Glucose with pH adjusted to pH 6.5. The receiver well used HBSS buffer supplemented with 1% BSA and the pH adjusted to pH 7.4. After an initial equilibration with transport buffer, TEER values were read to test membrane integrity. The experiment was started by the addition of buffers containing test compounds and 100 μl of solution is taken at 1 and 2 hrs from the receiver compartment. Removed buffer was replaced with fresh buffer and a correction was applied to all calculations for the removed material. Each compound was tested in 2 separate replicate wells for each condition. All samples were immediately collected into 400 μl 100% acetonitrile acid to precipitate protein and stabilize test compounds. Cells were dosed on the apical or basolateral side to determine forward (A to B) and reverse (B to A) permeability. Permeability through a cell free trans-well was also determined as a measure of cellular permeability through the membrane and non-specific binding. To test for non-specific binding and compound instability the total amount of drug was quantitated at the end of the experiment and compared to the material present in the original dosing solution as a percent recovery. Samples were analyzed by LC/MS/MS.
(§2) The apparent permeability, Papp, and % recovery were calculated as follows: […]
(§3) where, • dR/dt is the slope of the cumulative concentration in the receiver compartment versus time in μM/s based on receiver concentrations measured at 60 and 120 minute. • Vr and Vd is the volume in the receiver and donor compartment in cm^3, respectively. • A is the area of the cell monolayer (0.33 cm^2). • D0 and D120 is the measured donor concentration at the beginning and end of the experiment, respectively. • R120 is the receiver concentration at the end of the experiment (120 minutes).
(§4) The apparent permeability for certain compounds were determined using the above procedure.

[1] = Chemical stability in acidic solution (acid stability); assay type: physicochemical; conditions: pH 4.5 chemical solution; pH 4.5, 37° C.; read-out: Acid Stability (T ½, mins @ pH 4.5)
[2] = Solubility (shaking flask); assay type: physicochemical; conditions: phosphate buffer solution (PBS), aqueous buffer, thermodynamic from solid; PBS; 37° C. for 24 hours
Method: The solubility for certain compounds were determined using the following protocol and procedure. 1) The solution, sterile water or phosphate buffer solution (PBS), was added to the test compound tube to make the final concentration 10 mg/mL. 2) The sample tube was vortexed and incubated at 37° C. for 24 hours. During the incubation period, the sample tube was vortexed several times. 3) After the incubation, vortex the tube and centrifuge the tube at 13,000 rpm for 10 mins using an Eppendorf Centrifuge Model 5415C. If the solution was still cloudy, centrifuge it for longer until a clear supernatant was achieved. 4) The supernatant was diluted to 1×, 10× and 100× in 50% ACN in water. 5) A six point standard curve was prepared separately to make the final concentrations of 1 μg/mL, 5 μg/mL, 10 μg/mL, 20 μg/mL, 40 μg/mL and 60 μg/mL. 6) Samples were quantified using an HPLC with UV detector. 7) From the three concentrations of 1×, 10× and 100× supernatant, choose the value, which was fallen into the standard curve range (1 ug/mL-60 ug/mL), as the final result. If all the results were out of the curve range, adjust using a dilution factor to make the value within the curve range.

in vitro = in vitro ADME; conditions: human, Caco-2
Method: as §1, §2, §3, §4

Question: Which “Permeability Papp (A to B) × 10^−6 cm/s (Caco-2 A-B)” value (from here on “Permeability Papp”) (Caco-2 cells) does the source give for `CCCCCC(=O)OC[C@H]1O[C@@H](n2cc3c4c(ncnc42)NC(=O)C=C3N)[C@@](C)(O)[C@@H]1O` (stereo in doubt) [Compound 101, Hexanoic acid 5-(9-amino-7-oxo-6,7-dihydro-2,3,5,6-tetraaza-benzo[cd]azulen-2-yl)-3,4-dihydroxy-4-methyl-tetrahydro-furan-2-ylmethylester] here?
Answer: high

Question: And the half-life at 1 µg/mL [1]?
Answer: < 30 min

Question: And the solubility at 24 h [2]?
Answer: 137 µg/mL (≈ 308 µM)

Question: Which results are given for `CCCCCOC(=O)OC[C@H]1O[C@@H](n2cc3c4c(ncnc42)NC(=O)C=C3N)[C@@](C)(O)[C@@H]1O` (stereo in doubt) [Compound 103, Carbonic acid 5-(9-amino-7-oxo-6,7-dihydro-2,3,5,6-tetraaza-benzo[cd]azulen-2-yl)-3,4-dihydroxy-4-methyl-tetrahydro-furan-2-ylmethylester pentyl ester]?
Answer: Permeability Papp (A to B) × 10^−6 cm/s (Caco-2 A-B) (Caco-2 cells): low; half-life at 1 µg/mL [1]: ≤ 30 min

Question: What does the source list for `CC(C)C(=O)OC[C@H]1O[C@@H](n2cc3c4c(ncnc42)NC(=O)C=C3N)[C@@](C)(O)[C@@H]1O` (stereo in doubt) [Compound 105, Isobutyric acid 5-(9-amino-7-oxo-6,7-dihydro-2,3,5,6-tetraaza-benzo[cd]azulen-2-yl)-3,4-dihydroxy-4-methyl-tetrahydro-furan-2-ylmethylester]?
Answer: Permeability Papp (A to B) × 10^−6 cm/s (Caco-2 A-B) (Caco-2 cells): high; half-life at 1 µg/mL [1]: < 30 min; solubility at 24 h [2]: 9060 µg/mL (≈ 21700 µM)

Question: With `CC(C)C(=O)OCOC(=O)NC1=CC(=O)Nc2ncnc3c2c1cn3[C@@H]1O[C@H](CO)[C@@H](O)[C@]1(C)O` (stereo in doubt) [Compound 109, Isobutyric acid 2-(3,4-dihydroxy-5-hydroxymethyl-3-methyl-tetrahydro-furan-2-yl)-7-oxo-6,7-dihydro-2H-2,3,5,6-tetraaza-benzo[cd]azulen-9-ylcarbamoyloxymethyl ester] as the compound, how does the “Permeability Papp” value (Caco-2 cells) read?
Answer: low

Question: What about the half-life at 1 µg/mL [1] of the same compound?
Answer: > 120 min

Question: What about the solubility at 24 h [2] of the same compound?
Answer: 215 µg/mL (≈ 437 µM)

Question: Which results are given for `CC(C)C(=O)O[C@@H]1[C@@H](CO)O[C@@H](n2cc3c4c(ncnc42)NC(=O)C=C3N)C1(C)O` (stereo in doubt) [Compound 115, Isobutyric acid 5-(9-amino-7-oxo-6,7-dihydro-2,3,5,6-tetraaza-benzo[cd]azulen-2-yl)-4-hydroxy-2-hydroxymethyl-4-methyl-tetrahydro-furan-3-yl ester]?
Answer: Permeability Papp (A to B) × 10^−6 cm/s (Caco-2 A-B) (Caco-2 cells): high; half-life at 1 µg/mL [1]: < 30 min; solubility at 24 h [2]: 134 µg/mL (≈ 321 µM)

Question: Which results are given for `CC(=O)OC[C@H]1O[C@@H](n2cc3c4c(ncnc42)NC(=O)C=C3N)C(C)(OC(C)=O)[C@@H]1OC(C)=O` (stereo in doubt) [Compound 117, Acetic acid 4-acetoxy-2-acetoxymethyl-5-(9-amino-7-oxo-6,7-dihydro-2,3,5,6-tetraaza-benzo[cd]azulen-2-yl)-4-methyl-tetrahydro-furan-3-yl ester]?
Answer: Papp A→B at 2 h (in vitro): > 1 ×10⁻⁶ cm/s; solubility at 24 h [2]: 510 µg/mL (≈ 1080 µM)

Question: For `CC(C)C(=O)OC[C@H]1O[C@@H](n2cc3c4c(ncnc42)NC(=O)C=C3N)[C@@](C)(O)[C@@H]1OC(=O)C(C)C` (stereo in doubt) [Compound 134, Isobutyric acid 5-(9-amino-7-oxo-6,7-dihydro-2,3,5,6-tetraaza-benzo[cd]azulen-2-yl)-4-hydroxy-3-isobutyryloxy-4-methyl-tetrahydro-furan-2-ylmethyl ester], which “Permeability Papp” value (Caco-2 cells) is on record?
Answer: low

Question: What about the half-life at 1 µg/mL [1] of the same compound?
Answer: < 30 min

Question: What about the solubility at 24 h [2] of the same compound?
Answer: 67 µg/mL (≈ 137 µM)

Question: What does the source list for `CC(=O)OC[C@H]1O[C@@H](n2cc3c4c(ncnc42)NC(=O)C=C3N)[C@@](C)(O)[C@@H]1OC(C)=O` (stereo in doubt) [Compound 135, Acetic acid 3-acetoxy-5-(9-amino-7-oxo-6,7-dihydro-2,3,5,6-tetraaza-benzo[cd]azulen-2-yl)-4-hydroxy-4-methyl-tetrahydro-furan-2-ylmethylester]?
Answer: Permeability Papp (A to B) × 10^−6 cm/s (Caco-2 A-B) (Caco-2 cells): medium; half-life at 1 µg/mL [1]: < 15 min; solubility at 24 h [2]: 7280 µg/mL (≈ 16900 µM)

Question: Which “Permeability Papp” value (Caco-2 cells) does the source give for `CC1(O)C(O)C(CO)OC1n1cc2c3c(ncnc31)NC(=O)C=C2N` (stereo not shown) [Compound 100, 9-amino-2-(3,4-dihydroxy-5-hydroxymethyl-3-methyl-tetrahydro-furan-2-yl)-2,6-dihydro-2,3,5,6-tetraaza-benzo[cd]azulen-7-one, reference compound] here?
Answer: low

Question: And the half-life at 1 µg/mL [1]?
Answer: < 15 min

Question: What about the solubility at 24 h [2] of the same compound?
Answer: 11 µg/mL (≈ 31.7 µM)

Question: Which “Permeability Papp” value (Caco-2 cells) does the source give for `CC(C)C(=O)OC[C@H]1O[C@@H](n2cc3c4c(ncnc42)NC(=O)C=C3N)[C@@]2(C)OC(=O)O[C@H]12` [Compound 106, Isobutyric acid 6-(9-amino-7-oxo-6,7-dihydro-2,3,5,6-tetraaza-benzo[cd]azulen-2-yl)-6a-methyl-2-oxo-tetrahydro-furo[3,4-d][1,3]dioxol-4-ylmethyl ester] here?
Answer: high

Question: What about the half-life at 1 µg/mL [1] of the same compound?
Answer: < 30 min

Question: What about the solubility at 24 h [2] of the same compound?
Answer: 65 µg/mL (≈ 147 µM)

Question: For `CC(=O)OC[C@H]1O[C@@H](n2cc3c4c(ncnc42)NC(=O)C=C3N)[C@@]2(C)OC(=O)O[C@H]12` [Compound 108, Acetic acid 6-(9-amino-7-oxo-6,7-dihydro-2,3,5,6-tetraaza-benzo[cd]azulen-2-yl)-6a-methyl-2-oxo-tetrahydro-furo[3,4-d][1,3]dioxol-4-ylmethyl ester], which “Permeability Papp” value (Caco-2 cells) is on record?
Answer: medium

Question: And the half-life at 1 µg/mL [1]?
Answer: < 15 min

Question: And the solubility at 24 h [2]?
Answer: 28 µg/mL (≈ 67.4 µM)

Question: Which “Permeability Papp” value (Caco-2 cells) does the source give for `CCCCCC(=O)O[C@@H]1[C@@H](CO)O[C@@H](n2cc3c4c(ncnc42)NC(=O)C=C3N)[C@]1(C)O` [Compound 113, Hexanoic acid 5-(9-amino-7-oxo-6,7-dihydro-2,3,5,6-tetraaza-benzo[cd]azulen-2-yl)-4-hydroxy-2-hydroxymethyl-4-methyl-tetrahydro-furan-3-yl ester] here?
Answer: medium

Question: What about the half-life at 1 µg/mL [1] of the same compound?
Answer: < 30 min

Question: What about the solubility at 24 h [2] of the same compound?
Answer: 67 µg/mL (≈ 150 µM)

Question: What does the source list for `CC12OC(=O)O[C@@H]1[C@@H](CO)O[C@H]2n1cc2c3c(ncnc31)NC(=O)C=C2N` (stereo partly shown) [Compound 116, 9-Amino-2-(6-hydroxymethyl-3a-methyl-2-oxo-tetrahydro-furo[3,4-d][1,3]dioxol-4-yl)-2,6-dihydro-2,3,5,6-tetraaza-benzo[cd]azulen-7-one]?
Answer: Permeability Papp (A to B) × 10^−6 cm/s (Caco-2 A-B) (Caco-2 cells): low; half-life at 1 µg/mL [1]: < 30 min; solubility at 24 h [2]: 202 µg/mL (≈ 541 µM)

Question: For `CC(=O)N[C@H](C(=O)OC[C@H]1O[C@@H](n2cc3c4c(ncnc42)NC(=O)C=C3N)C(C)(O)[C@@H]1O)C(C)C` (stereo partly shown) [Compound 124, 2-Acetylamino-3-methyl-butyric acid5-(9-amino-7-oxo-6,7-dihydro-2,3,5,6-tetraaza-benzo[cd]azulen-2-yl)-3,4-dihydroxy-4-methyl-tetrahydro-furan-2-ylmethyl ester], which “Permeability Papp” value (Caco-2 cells) is on record?
Answer: low

Question: What about the half-life at 1 µg/mL [1] of the same compound?
Answer: < 30 min

Question: What about the solubility at 24 h [2] of the same compound?
Answer: 6250 µg/mL (≈ 12800 µM)

Question: Which “Permeability Papp” value (Caco-2 cells) does the source give for `CCCCCOC(=O)NC1=CC(=O)Nc2ncnc3c2c1cn3[C@@H]1O[C@H](CO)[C@@H](O)[C@@]1(C)O` [Compound 138, [2-(3,4-Dihydroxy-5-hydroxymethyl-3-methyl-tetrahydro-furan-2-yl)-7-oxo-6,7-dihydro-2H-2,3,5,6-tetraaza-benzo[cd]azulen-9-yl]-carbamic acidpentyl ester] here?
Answer: medium

Question: What about the half-life at 1 µg/mL [1] of the same compound?
Answer: > 120 min

Question: And the solubility at 24 h [2]?
Answer: 32 µg/mL (≈ 69.3 µM)

— patent US20090062223A1, “AMINO TRICYCLIC-NUCLEOSIDE COMPOUNDS, COMPOSITIONS, AND METHODS OF USE” (GENELABS TECHNOLOGIES, INC., priority 2007, published 2009)
